From PubChem BioAssay AID248 (DTP/NCI, 2004)
Several values for one entry are separate records, joined by “and”; a condition that tells them apart may be missing. Equal values may be shown once. Inconclusive results and toxic doses are left out. No stated cut-off is given here; in the data, active means T/C of 150% or more; inactive means T/C below 125%.

Tested on: L1210 leukemia ip in BDF1 mice, survival T/C
Assay: NCI In Vivo Anticancer Drug Screen. Data for tumor model L1210 Leukemia (intraperitoneal) in B6D2F1 (BDF1) mice
Conditions: endpoint: mean survival time, higher = longer survival
Summary of the method: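 Transplanted-tumor mice were given test agent; controls received vehicle only. Survival readings from the two groups were divided (treated over control).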

[1] = dose: 100.0 mg/kg/injection, schedule: Q01DX009 (ip), vehicle: Klucel (hydroxypropylcellulose) (HPC)
[2] = dose: 200.0 mg/kg/injection, schedule: Q01DX009 (ip), vehicle: Klucel (hydroxypropylcellulose) (HPC)
[3] = dose: 400.0 mg/kg/injection, schedule: Q01DX009 (ip), vehicle: Klucel (hydroxypropylcellulose) (HPC)
[4] = dose: 100.0 mg/kg/injection, schedule: Q01DX001 (ip), vehicle: saline
[5] = dose: 200.0 mg/kg/injection, schedule: Q01DX001 (ip), vehicle: saline
[6] = dose: 400.0 mg/kg/injection, schedule: Q01DX001 (ip), vehicle: saline
[7] = dose: 25.0 mg/kg/injection, schedule: Q01DX009 (ip), vehicle: saline
[8] = dose: 25.0 mg/kg/injection, schedule: Q04DX003 (ip), vehicle: saline
[9] = dose: 50.0 mg/kg/injection, schedule: Q01DX009 (ip), vehicle: saline
[10] = dose: 50.0 mg/kg/injection, schedule: Q04DX003 (ip), vehicle: saline
[11] = dose: 100.0 mg/kg/injection, schedule: Q04DX003 (ip), vehicle: saline
[12] = dose: 100.0 mg/kg/injection, schedule: Q01DX009 (ip), vehicle: saline
[13] = dose: 200.0 mg/kg/injection, schedule: Q01DX009 (ip), vehicle: saline
[14] = dose: 100.0 mg/kg/injection, schedule: Q01DX001 (ip), vehicle: carboxymethylcellulose (CMC)
[15] = dose: 200.0 mg/kg/injection, schedule: Q01DX001 (ip), vehicle: carboxymethylcellulose (CMC)
[16] = dose: 400.0 mg/kg/injection, schedule: Q01DX001 (ip), vehicle: carboxymethylcellulose (CMC)
[17] = dose: 100.0 mg/kg/injection, schedule: Q01DX001 (ip), vehicle: Klucel (hydroxypropylcellulose) (HPC)
[18] = dose: 200.0 mg/kg/injection, schedule: Q01DX001 (ip), vehicle: Klucel (hydroxypropylcellulose) (HPC)
[19] = dose: 400.0 mg/kg/injection, schedule: Q01DX001 (ip), vehicle: Klucel (hydroxypropylcellulose) (HPC)

Measured: T/C

C=CC12COC(=O)C(=C)C1C1OC(=O)C(=C)C1C(O)C2 (stereo not drawn)
inactive: dose: 2.5 mg/kg/injection, schedule: Q01DX009 (ip), vehicle: saline + alcohol 102 % of control | dose: 4.0 mg/kg/injection, schedule: Q01DX009 (ip), vehicle: saline 104 % of control | dose: 4.0 mg/kg/injection, schedule: Q01DX009 (ip), vehicle: water 103 % of control | dose: 5.0 mg/kg/injection, schedule: Q01DX009 (ip), vehicle: saline + alcohol 110 % of control | dose: 6.0 mg/kg/injection, schedule: Q01DX009 (ip), vehicle: saline 113 % of control | dose: 8.0 mg/kg/injection, schedule: Q01DX009 (ip), vehicle: saline 124 % of control | dose: 8.0 mg/kg/injection, schedule: Q01DX009 (ip), vehicle: water 118 % of control | dose: 10.0 mg/kg/injection, schedule: Q01DX009 (ip), vehicle: saline 111 % of control

Nn1c(C(F)(F)F)n[nH]c1=S
inactive: dose: 100.0 mg/kg/injection, schedule: Q04DX003 (ip), vehicle: alcohol 103 % of control | dose: 200.0 mg/kg/injection, schedule: Q04DX003 (ip), vehicle: alcohol 101 % of control | dose: 400.0 mg/kg/injection, schedule: Q04DX003 (ip), vehicle: alcohol 95 % of control

Clc1ccccc1C=Nc1cccc2ccccc12
inactive: [1] 121 % of control | [2] 104 % of control | [3] 107 % of control

COC1OC(COC(=O)c2ccc([N+](=O)[O-])cc2)C(OCc2ccccc2)C1OC(=O)c1ccc([N+](=O)[O-])cc1 (stereo not drawn)
inactive: dose: 50.0 mg/kg/injection, schedule: Q01DX001 (ip), vehicle: saline 113 % of control | [4] 105 % of control | [5] 116 % of control | [6] 105 % of control

CC1(/C=N\NC(=O)CCCC(=O)N/N=C/C2(C)CCC=CO2)CCC=CO1 (stereo not drawn)
inactive: [4] 92 % of control | [6] 97 % of control

C[N+](C)(C)CCOC(=O)c1cc(CBr)cc(CBr)c1
inactive: [7] 101 % of control | [8] 98 % of control | [9] 95 % of control | [10] 100 % of control | [11] 102 % of control

c1ccc2c(C3CCCCN3)c[nH]c2c1 (stereo not drawn)
inactive: dose: 12.5 mg/kg/injection, schedule: Q01DX009 (ip), vehicle: saline 88 % of control | [7] 90 % of control | [8] 103 % of control | [10] 92 % of control | [4] 97 % of control

C[C@]12CC[C@H]3[C@@H](CC[C@]4(O)C[C@@H](O)CC[C@]34C=O)[C@@]1(O)CC[C@@H]2c1ccc(=O)oc1
inactive: dose: 5.0 mg/kg/injection, schedule: Q01DX001 (ip), vehicle: saline 96 % of control | dose: 10.0 mg/kg/injection, schedule: Q01DX001 (ip), vehicle: saline 95 % of control | dose: 20.0 mg/kg/injection, schedule: Q01DX001 (ip), vehicle: saline 104 % of control | dose: 40.0 mg/kg/injection, schedule: Q01DX001 (ip), vehicle: saline 98 % of control | dose: 80.0 mg/kg/injection, schedule: Q01DX001 (ip), vehicle: saline 95 % of control

C#CCOCC1CNC(=O)O1 (stereo not drawn)
inactive: [7] 95 % of control | [8] 103 % of control | [9] 96 % of control | [10] 105 % of control | [12] 96 % of control | [11] 97 % of control | [13] 101 % of control | dose: 200.0 mg/kg/injection, schedule: Q04DX003 (ip), vehicle: saline 100 % of control | dose: 400.0 mg/kg/injection, schedule: Q01DX009 (ip), vehicle: saline 91 % of control | dose: 400.0 mg/kg/injection, schedule: Q04DX003 (ip), vehicle: saline 105 % of control

CC1Nc2ccccc2-c2ccccc2C1=O (stereo not drawn)
inactive: [14] 107 % of control | [15] 102 % of control | [16] 102 % of control

S=c1nc[nH]c2c1ncn2C1CCCCO1 (stereo not drawn)
inactive: dose: 16.0 mg/kg/injection, schedule: Q01DX Z (ip), vehicle: carboxymethylcellulose (CMC) 120 % of control | dose: 21.0 mg/kg/injection, schedule: Q01DX009 (ip), vehicle: saline 103 % of control | dose: 36.0 mg/kg/injection, schedule: Q01DX009 (ip), vehicle: saline 120 % of control | dose: 88.0 mg/kg/injection, schedule: Q01DX001 (ip), vehicle: saline 112 % of control | [14] 124 % of control | [12] 118 % of control | dose: 120.0 mg/kg/injection, schedule: Q01DX009 (ip), vehicle: saline 107 % of control | dose: 125.0 mg/kg/injection, schedule: Q01DX Z (ip), vehicle: carboxymethylcellulose (CMC) 94 % of control | dose: 133.0 mg/kg/injection, schedule: Q01DX001 (ip), vehicle: saline 122 % of control | dose: 900.0 mg/kg/injection, schedule: Q01DX001 (ip), vehicle: carboxymethylcellulose (CMC) 104 % of control | dose: 1350.0 mg/kg/injection, schedule: Q01DX001 (ip), vehicle: carboxymethylcellulose (CMC) 96 % of control
active: dose: 177.0 mg/kg/injection, schedule: Q01DX001 (ip), vehicle: carboxymethylcellulose (CMC) 155 % of control | [5] 155 % of control | dose: 267.0 mg/kg/injection, schedule: Q01DX001 (ip), vehicle: carboxymethylcellulose (CMC) 159 % of control | dose: 600.0 mg/kg/injection, schedule: Q01DX001 (ip), vehicle: carboxymethylcellulose (CMC) 150 % of control and 156 % of control

O=[N+]([O-])c1ccc(Cc2ccccn2)cc1
inactive: [17] 104 % of control | [1] 95 % of control | [18] 108 % of control | [2] 101 % of control | [19] 112 % of control

COc1c(C)ccc(/C=N/NC(=O)c2ccncc2)c1C
inactive: dose: 100.0 mg/kg/injection, schedule: Q04DX002 (ip), vehicle: carboxymethylcellulose (CMC) 95 % of control | dose: 200.0 mg/kg/injection, schedule: Q04DX002 (ip), vehicle: carboxymethylcellulose (CMC) 95 % of control | dose: 400.0 mg/kg/injection, schedule: Q04DX002 (ip), vehicle: carboxymethylcellulose (CMC) 92 % of control

CCOc1ccc([N+](=O)[O-])cc1C1N(Cc2ccc(OC)cc2)CCCN1Cc1ccc(OC)cc1
inactive: dose: 100.0 mg/kg/injection, schedule: Q01DX001 (ip), vehicle: acetone 100 % of control | dose: 200.0 mg/kg/injection, schedule: Q01DX001 (ip), vehicle: acetone 94 % of control | dose: 400.0 mg/kg/injection, schedule: Q01DX001 (ip), vehicle: acetone 94 % of control

CC(=O)NCC[CH2][Sn]([c]1ccccc1)([c]1ccccc1)[c]1ccccc1
inactive: [9] 100 % of control | [12] 100 % of control | [13] 110 % of control

CCOC(=O)Nc1cc(NCc2ccccc2)c(N)c(N)n1
inactive: [4] 96 % of control | [5] 97 % of control

CC1(CCCc2ccc(N)cc2)N=C(N)N=C(N)N1c1ccccc1 (stereo not drawn)
inactive: dose: 50.0 mg/kg/injection, schedule: Q01DX001 (ip), vehicle: Klucel (hydroxypropylcellulose) (HPC) 106 % of control | [17] 112 % of control | [18] 110 % of control

CCSCC1C=CC(n2cnc3c(N)ncnc32)O1 (stereo not drawn)
inactive: dose: 50.0 mg/kg/injection, schedule: Q01DX001 (ip), vehicle: carboxymethylcellulose (CMC) 109 % of control | [14] 109 % of control | [15] 98 % of control | [16] 109 % of control

COC1=C(Br)C(=O)C(OC)=C(Br)C1=O
inactive: dose: 25.0 mg/kg/injection, schedule: Q04DX003 (ip), vehicle: saline with Tween-80 95 % of control | dose: 50.0 mg/kg/injection, schedule: Q04DX003 (ip), vehicle: saline with Tween-80 92 % of control | dose: 100.0 mg/kg/injection, schedule: Q04DX003 (ip), vehicle: saline with Tween-80 91 % of control

N/N=C\c1cnnc2ccccc12
inactive: [4] 95 % of control | [5] 95 % of control | [6] 98 % of control

CC(=N/Nc1ccccc1)/C(C)=N/Nc1ccccc1
inactive: [17] 101 % of control | [1] 88 % of control | [18] 91 % of control | [2] 95 % of control | [19] 102 % of control | [3] 98 % of control
